IC50 data for 29 molecules are collected here from patent publication US20240083900A1, “PYRAZOLO[1,5-A]PYRAZINE DERIVATIVES AS BTK INHIBITORS” (BIOGEN MA INC., priority 2020, published 2024).

As usually defined, the IC50 is the midpoint of a concentration-inhibition curve.

Chain of BTK (Q06187 whole entry): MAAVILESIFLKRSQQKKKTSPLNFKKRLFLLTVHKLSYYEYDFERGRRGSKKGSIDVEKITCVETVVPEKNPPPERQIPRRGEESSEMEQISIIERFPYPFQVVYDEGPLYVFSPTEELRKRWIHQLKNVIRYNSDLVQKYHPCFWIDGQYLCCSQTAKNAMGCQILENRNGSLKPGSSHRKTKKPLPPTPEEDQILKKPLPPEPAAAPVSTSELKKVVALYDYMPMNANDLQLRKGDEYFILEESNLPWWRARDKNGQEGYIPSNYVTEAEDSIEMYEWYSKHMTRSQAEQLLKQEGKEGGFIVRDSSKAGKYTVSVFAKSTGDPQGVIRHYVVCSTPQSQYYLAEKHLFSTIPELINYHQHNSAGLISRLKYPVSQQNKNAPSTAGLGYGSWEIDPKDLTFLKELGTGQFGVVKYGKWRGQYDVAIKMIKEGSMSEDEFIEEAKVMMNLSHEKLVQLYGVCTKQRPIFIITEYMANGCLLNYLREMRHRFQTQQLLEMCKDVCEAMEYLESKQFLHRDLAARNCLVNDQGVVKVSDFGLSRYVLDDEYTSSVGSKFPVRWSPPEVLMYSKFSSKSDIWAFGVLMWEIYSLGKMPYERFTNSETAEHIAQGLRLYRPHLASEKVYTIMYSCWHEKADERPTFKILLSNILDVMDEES

One test has as its target BTK (Homo sapiens (Human), UniProt Q06187). As to the kind of experiment: In Vitro BTK Kinase Assay: Btk-PolyGAT-LS Assay. The class given is biochemical. Conditions: BTK enzyme 0.25 nM, ATP 10 μM, polyGAT 100 nM, 30 minutes incubation, TRF readout; read-out: IC50. The method, boiled down:
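Human BTK activity was measured with final 10 μM ATP and 100 nM polyGAT substrate in pH 7.5 Tris buffer with 10 mM MgCl2, DTT, Triton X-100 and casein.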
On to `C=CC(=O)N(C)[C@@H]1COC[C@H](Oc2nc(-c3cnn(C)c3)cn3nccc23)C1` (racemic) [Example 96, N-methyl-N-((cis)-5-((6-(1-methyl-1H-pyrazol-4-yl)pyrazolo[1,5-a]pyrazin-4-yl)oxy)tetrahydro-2H-pyran-3-yl)acrylamide], for which the IC50 is < 1 nM.
Still for that read-out and setting: the same measure for `CC#CC(=O)N(C)[C@@H]1C[C@@H]2C[C@H]1[C@@H](Oc1nc(-c3cnn(C)c3)cn3nccc13)C2` (racemic) [Example 123, N-methyl-N-((1S,2S,4R,6R)-6-((6-(1-methyl-1H-pyrazol-4-yl)pyrazolo[1,5-a]pyrazin-4-yl)oxy)bicyclo[2.2.1]heptan-2-yl)but-2-ynamide and N-methyl-N-((1R,2R,4S,6S)-6-((6-(1-methyl-1H-pyrazol-4-y)pyrazolo[1,5-a]pyrazin-4-yl)oxy)bicyclo[2.2.1]heptan-2-y)but-2-ynamide]: 1 to 10 nM; for `Cn1cc(-c2cn3nccc3c(O[C@H]3C[C@H](N(C)C(=O)/C=C/CCl)C3)n2)cn1` [Example 227, (E)-4-chloro-N-methyl-N-((trans)-3-((6-(1-methyl-1H-pyrazol-4-yl)pyrazolo[1,5-a]pyrazin-4-yl)oxy)cyclobutyl)but-2-enamide]: < 1 nM; for `Cn1cc(-c2cn3nccc3c(O[C@]3(C)C[C@H](N(C)C(=O)C4=CCC4)C3)n2)cn1` [Example 230, N-methyl-N-((1s,3s)-3-methyl-3-((6-(1-methyl-1H-pyrazol-4-yl)pyrazolo[1,5-a]pyrazin-4-yl)oxy)cyclobutyl)cyclobut-1-ene-1-carboxamide]: 1 to 10 nM.

A further test has as its system CD69 expression on CD19+ B cells in human whole blood stimulated with anti-human IgD. The experiment in a line: In Vitro whole blood CD69 Assay. The class given is cell-based. Conditions: Homo sapiens, B-cell.
`C=CC(=O)N(C)[C@H]1C[C@@](C)(Oc2nc(-c3cnn(C)c3)cn3nccc23)C1` [Example 79, N-methyl-N-((1s,3s)-3-methyl-3-((6-(1-methyl-1H-pyrazol-4-yl)pyrazolo[1,5-a]pyrazin-4-yl)oxy)cyclobutyl)acrylamide]: the IC50 was < 1000 nM.
The same measure, in the same setting: the same measure for `C=CC(=O)N(C)[C@H]1C[C@](C)(Oc2nc(-c3cnn(C)c3)cn3nccc23)C1` [Example 217, N-methyl-N-((1r,3r)-3-methyl-3-((6-(1-methyl-1H-pyrazol-4-yl)pyrazolo[1,5-a]pyrazin-4-yl)oxy)cyclobutyl)acrylamide]: 1000 to 10000 nM.
Still for that read-out and setting: the same measure for `C=CC(=O)N(C)[C@H]1C[C@@](C)(Oc2nc(-c3cnn(C)c3)cc3nccn23)C1` [Example 236, N-methyl-N-((1s,3s)-3-methyl-3-((7-(1-methyl-1H-pyrazol-4-yl)imidazo[1,2-c]pyrimidin-5-yl)oxy)cyclobutyl)acrylamide]: < 1000 nM.

The test is the same for the next values; noted with them: Homo sapiens, B-cell, human heparinized whole blood, anti-human IgD stimulation overnight, percentage of CD19+ B cells expressing CD69, flow cytometry; read-out: IC50.
For the molecule `C=CC(=O)N(C)[C@@H]1COC[C@H](Oc2nc(-c3cnn(C)c3)cn3nccc23)C1` (racemic) [Example 96, N-methyl-N-((cis)-5-((6-(1-methyl-1H-pyrazol-4-yl)pyrazolo[1,5-a]pyrazin-4-yl)oxy)tetrahydro-2H-pyran-3-yl)acrylamide], the concentration for half-maximal inhibition (IC50) is < 1000 nM.
For `C=CC(=O)N(C)[C@@H]1CC[C@H](Oc2nc(-c3cnn(C)c3)cn3nccc23)C1` (relative stereo) [Example 143, N-methyl-N-((cis)-3-((6-(1-methyl-1H-pyrazol-4-yl)pyrazolo[1,5-a]pyrazin-4-yl)oxy)cyclopentyl)acrylamide], the IC50 was < 1000 nM.
Turning to `C=CC(=O)N1CCC(Oc2nc(-c3cnn(C)c3)cn3nccc23)CC1` [Example 2, 1-(4-((6-(1-methyl-1H-pyrazol-4-yl)pyrazolo[1,5-a]pyrazin-4-yl)oxy)piperidin-1-yl)prop-2-en-1-one], the concentration for half-maximal inhibition (IC50) is > 10000 nM.
For `C=CC(=O)N1CCC[C@@H](Oc2nc(-c3cnn(C)c3)cn3nccc23)C1` [Example 4, (R)-1-(3-((6-(1-methyl-1H-pyrazol-4-yl)pyrazolo[1,5-a]pyrazin-4-yl)oxy)piperidin-1-yl)prop-2-en-1-one], the half-inhibitory concentration (IC50) was > 10000 nM.
As for `Cn1cc(-c2cn3nccc3c(OC3CCN(C(=O)/C=C\CCl)CC3)n2)cn1` [Example 8, (Z)-4-chloro-1-(4-((6-(1-methyl-1H-pyrazol-4-yl)pyrazolo[1,5-a]pyrazin-4-yl)oxy)piperidin-1-yl)but-2-en-1-one], the IC50 lay in the range of 1000 to 10000 nM.
Same read-out and setting: the same measure for `C=CC(=O)N1CC[C@@H](Oc2nc(-c3cnn(C)c3)cn3nccc23)C1` [Example 11, (R)-1-(3-((6-(1-methyl-1H-pyrazol-4-yl)pyrazolo[1,5-a]pyrazin-4-yl)oxy)pyrrolidin-1-yl)prop-2-en-1-one]: > 10000 nM; for `C=CC(=O)N1CCC[C@@H](Oc2nc(-c3cnn(C)c3)cn3nccc23)CC1` [Example 29, (R)-1-(4-((6-(1-methyl-1H-pyrazol-4-yl)pyrazolo[1,5-a]pyrazin-4-yl)oxy)azepan-1-yl)prop-2-en-1-one]: < 1000 nM; for `C=CC(=O)N(C)C12CCC(Oc3nc(-c4cnn(C)c4)cn4nccc34)(C1)C2` [Example 99, N-methyl-N-(4-((6-(1-methyl-1H-pyrazol-4-yl)pyrazolo[1,5-a]pyrazin-4-yl)oxy)bicyclo[2.1.1]hexan-1-yl)acrylamide]: < 1000 nM.
Still for that read-out and setting: the same measure for `C=CC(=O)N(C)[C@H]1CC[C@@H](Oc2nc(-c3cnn(C)c3)cn3nccc23)C1` [Example 145, N-methyl-N-((1S,3R)-3-((6-(1-methyl-1H-pyrazol-4-yl)pyrazolo[1,5-a]pyrazin-4-yl)oxy)cyclopentyl)acrylamide]: < 1000 nM; for `C=CC(=O)N1C[C@H]2C[C@@H](Oc3nc(-c4cnn(C)c4)cn4nccc34)C[C@@H]1C2` [Example 167, 1-((1R,3R,5S)-3-((6-(1-methyl-1H-pyrazol-4-yl)pyrazolo[1,5-a]pyrazin-4-yl)oxy)-6-azabicyclo[3.2.1]octan-6-yl)prop-2-en-1-one]: < 1000 nM; for `C=CC(=O)N1C[C@@H]2C[C@H](Oc3nc(-c4cnn(C)c4)cn4nccc34)C[C@H]1C2` [Example 168, 1-((1S,3S,5R)-3-((6-(1-methyl-1H-pyrazol-4-yl)pyrazolo[1,5-a]pyrazin-4-yl)oxy)-6-azabicyclo[3.2.1]octan-6-yl)prop-2-en-1-one]: 1000 to 10000 nM.
Same read-out and setting: the same measure for `C=CC(=O)N(C)[C@H]1CCC[C@@H](Oc2nc(-c3cnn(C)c3)cn3nccc23)C1` [Example 175, N-methyl-N-((1S,3R)-3-((6-(1-methyl-1H-pyrazol-4-yl)pyrazolo[1,5-a]pyrazin-4-yl)oxy)cyclohexyl)acrylamide]: < 1000 nM; for `C=CC(=O)N(C)[C@@H]1CCC[C@H](Oc2nc(-c3cnn(C)c3)cn3nccc23)C1` [Example 176, N-methyl-N—((1R,3S)-3-((6-(1-methyl-1H-pyrazol-4-yl)pyrazolo[1,5-a]pyrazin-4-yl)oxy)cyclohexyl)acrylamide]: 1000 to 10000 nM.
Consider `C=CC(=O)N(C)[C@H]1C[C@H](Oc2nc(-c3cnn(C)c3)cn3nccc23)C1` [Example 185, N-methyl-N-((trans)-3-((6-(1-methyl-1H-pyrazol-4-yl)pyrazolo[1,5-a]pyrazin-4-yl)oxy)cyclobutyl)acrylamide], for which the IC50 was in the range of 1000 to 10000 nM.
On the same count and under the same terms, the same measure for `C=CC(=O)N1CC[C@@H]2[C@H]1C[C@]2(C)Oc1nc(-c2cnn(C)c2)cn2nccc12` [Example 190, 1-((1R,5R,6S)-6-methyl-6-((6-(1-methyl-1H-pyrazol-4-yl)pyrazolo[1,5-a]pyrazin-4-yl)oxy)-2-azabicyclo[3.2.0]heptan-2-yl)prop-2-en-1-one]: < 1000 nM.
Still for that read-out and setting: the same measure for `C=CC(=O)N1CC[C@H]2[C@@H]1C[C@@]2(C)Oc1nc(-c2cnn(C)c2)cn2nccc12` [Example 191, 1-((1S,5S,6R)-6-methyl-6-((6-(1-methyl-1H-pyrazol-4-yl)pyrazolo[1,5-a]pyrazin-4-yl)oxy)-2-azabicyclo[3.2.0]heptan-2-yl)prop-2-en-1-one]: 1000 to 10000 nM; for `C=CC(=O)N1C[C@@H]2C[C@@](C)(Oc3nc(-c4cnn(C)c4)cn4nccc34)[C@@H]2C1` [Example 199, 1-((1R,5S,6R)-6-methyl-6-((6-(1-methyl-1H-pyrazol-4-yl)pyrazolo[1,5-a]pyrazin-4-yl)oxy)-3-azabicyclo[3.2.0]heptan-3-yl)prop-2-en-1-one]: 1000 to 10000 nM; for `C=CC(=O)N1C[C@H]2C[C@](C)(Oc3nc(-c4cnn(C)c4)cn4nccc34)[C@H]2C1` [Example 200, 1-((1S,5R,6S)-6-methyl-6-((6-(1-methyl-1H-pyrazol-4-yl)pyrazolo[1,5-a]pyrazin-4-yl)oxy)-3-azabicyclo[3.2.0]heptan-3-yl)prop-2-en-1-one]: < 1000 nM.
On the same count and under the same terms, the same measure for `C=CC(=O)N1C[C@@H]2[C@@H](COc3nc(-c4cnn(C)c4)cn4nccc34)[C@@H]2C1` [Example 214, 1-((1R,5S,6r)-6-(((6-(1-methyl-1H-pyrazol-4-yl)pyrazolo[1,5-a]pyrazin-4-yl)oxy)methyl)-3-azabicyclo[3.1.0]hexan-3-yl)prop-2-en-1-one]: < 1000 nM; for `C=CC(=O)N(C)[C@H]1C[C@@H](Oc2nc(-c3cnn(C)c3)cn3nccc23)C1` [Example 215, N-methyl-N-((cis)-3-((6-(1-methyl-1H-pyrazol-4-yl)pyrazolo[1,5-a]pyrazin-4-yl)oxy)cyclobutyl)acrylamide]: 1000 to 10000 nM.
As to `C=CC(=O)N1C[C@@H]2[C@H](COc3nc(-c4cnn(C)c4)cn4nccc34)[C@@H]2C1` [Example 221, 1-((1R,5S,6s)-6-(((6-(1-methyl-1H-pyrazol-4-yl)pyrazolo[1,5-a]pyrazin-4-yl)oxy)methyl)-3-azabicyclo[3.1.0]hexan-3-yl)prop-2-en-1-one], the 50% inhibitory concentration (IC50) lay in the range of 1000 to 10000 nM.
On the same count and under the same terms, the same measure for `C=CC(=O)N(C)C12CCCC(Oc3nc(-c4cnn(C)c4)cn4nccc34)(C1)C2` [Example 225, N-methyl-N-(5-((6-(1-methyl-1H-pyrazol-4-yl)pyrazolo[1,5-a]pyrazin-4-yl)oxy)bicyclo[3.1.1]heptan-1-yl)acrylamide]: < 1000 nM.

The test is the same for the next values; noted with them: human heparinized whole blood, anti-human IgD stimulation overnight, percentage of CD19+ B cells expressing CD69, flow cytometry; read-out: IC50.
Consider `CC#CC(=O)N(C)[C@@H]1C[C@@H]2C[C@H]1[C@@H](Oc1nc(-c3cnn(C)c3)cn3nccc13)C2` (racemic) [Example 123, N-methyl-N-((1S,2S,4R,6R)-6-((6-(1-methyl-1H-pyrazol-4-yl)pyrazolo[1,5-a]pyrazin-4-yl)oxy)bicyclo[2.2.1]heptan-2-yl)but-2-ynamide and N-methyl-N-((1R,2R,4S,6S)-6-((6-(1-methyl-1H-pyrazol-4-y)pyrazolo[1,5-a]pyrazin-4-yl)oxy)bicyclo[2.2.1]heptan-2-y)but-2-ynamide], for which the concentration for half-maximal inhibition (IC50) lay in the range of 1000 to 10000 nM.
Still for that read-out and setting: the same measure for `C=CC(=O)N(C)[C@]1(C)C[C@H](Oc2nc(-c3cnn(C)c3)cn3nccc23)C1` [Example 158, Cis N-methyl-N-(1-methyl-3-((6-(1-methyl-1H-pyrazol-4-yl)pyrazolo[1,5-a]pyrazin-4-yl)oxy)cyclobutyl)acrylamide]: < 1000 nM.
